In patent US5541161A, “Stabilized sulfonate, sulfate, phosphonate and phosphate derivatives of hirudin” (Merrell Pharmaceuticals Inc., priority 1993, dated 1996):
Like-named read-outs stand apart in the source and are kept apart here. Numbered stars: 1 amine (or outer) side, 2 acyl side, 3 side chain; on linkers, the order of the positions; unused ones are H or OH. Suc = O=C(CCC(=O)[*:2])[*:1]; Pnh(SO3) = not defined here

Biological target: thrombin (Homo sapiens, UniProt P00734)
Experiment: Fibrin-Clot Assay
Type: biochemical
[1] = read-out: IC50 Fibrin-Clot Assay
[2] = read-out: IC50 Fibrin-Clot Assay (class symbol)

| Compound | IC50 [1] [µM] | IC50 [2] [µM] |
| --- | --- | --- |
| CC[C@H](C)[C@H](NC(=O)[C@@H]1CCCN1C(=O)[C@H](CCC(=O)O)NC(=O)[C@H](Cc1ccc(OS(=O)(=O)O)cc1)NC(=O)CCC(=O)O)C(=O)N1CCC[C@H]1C(=O)N[C@@H](CCC(=O)O)C(=O)N[C@@H](CCC(=O)O)C(=O)N[C@@H](C)C(=O)N[C@@H](Cc1ccc(NS(=O)(=O)O)cc1)C(=O)N[C@H](CCC(=O)O)C(=O)O [Example 2, Suc-TVr(SO3 H)-Glu-Pro-Ile-Pro-Glu-Glu-Ala-Phe(pNHSO3 H)-D-Glu-OH] | 15 | < 25 |
| CC[C@H](C)[C@H](NC(=O)[C@@H]1CCCN1C(=O)[C@H](CCC(=O)O)NC(=O)[C@H](Cc1ccc(NS(=O)(=O)O)cc1)NC(=O)CCC(=O)O)C(=O)N1CCC[C@H]1C(=O)N[C@@H](CCC(=O)O)C(=O)N[C@@H](CCC(=O)O)C(=O)N[C@@H](C)C(=O)N[C@@H](CC1CCCCC1)C(=O)N[C@H](CCC(=O)O)C(=O)O [Example 4, Suc-Phe(pNHSO3 H)-Glu-Pro-Ile-Pro-Glu-Glu-Ala-Cha-D-Glu-OH] | 13 | < 25 |
| CC[C@H](C)[C@H](NC(=O)[C@@H]1CCCN1C(=O)[C@H](COS(=O)(=O)O)NC(=O)[C@H](Cc1ccc(O)cc1)NC(=O)CCC(=O)O)C(=O)N1CCC[C@H]1C(=O)N[C@@H](COS(=O)(=O)O)C(=O)N[C@@H](COS(=O)(=O)O)C(=O)N[C@@H](C)C(=O)N[C@@H](CC1CCCCC1)C(=O)N[C@@H](COS(=O)(=O)O)C(=O)O [Example 8, Suc-Tyr-Ser(SO3 H)-Pro-Ile-Pro-Ser(SO3 H)-Ser(SO3 H)-Ala-Cha-Ser(SO3 H)-OH] | 0.21 | < 5 |
| Suc-Tyr(SO3 H)-Glu-Pro-Ile-Pro-Glu-Glu-Ala-Cha-D-Glu-OH [Example 5] | 1.7 | < 5 |
| Suc-Tyr-Glu-Pro-Ile-Pro-Glu-Glu-Phe(pNHSO3 H)-D-Glu-OH [Example 3] | 0.12 | – |
| Suc-Tyr-Pro-Ile-Pro-Glu-Glu-Ala-Pnh(SO3)-D-Glu-OH (Suc-YPIPEEA-{Pnh(SO3)-dE-OH}; reading uncertain; also: printed as Suc-Tyr-Pro-Ile-Pro-Glu-Glu-Ala-Pnh(SO3)-D-Glu-OH) [Example 1] | 2.5 | < 5 |
